Measurements from patent US4524073A, “β-Lactam compounds” (Beecham Group p.1.c., priority 1982, dated 1985).
Converted amounts (≈) assume the structure as drawn.

Key:
E.coli JT39 = assay: Antibacterial activity, E. coli JT39 (Table 2); assay type: cell-based; details: Escherichia coli, compound alone
S.aureus Russell = assay: Antibacterial activity, S. aureus Russell (Table 2); assay type: cell-based; details: Staphylococcus aureus, compound alone

O=C(O)[C@H]1/C(=C/CNCCCl)O[C@@H]2CC(=O)N21 [Example 2, 9-N-(2-Chloroethyl)amino-deoxyclavulanic acid]
MIC (E.coli JT39): 31.2 µg/mL (≈ 120 µM) | MIC (S.aureus Russell): 8 µg/mL (≈ 30.7 µM)

CC(=O)OCCCCNC/C=C1\O[C@@H]2CC(=O)N2[C@H]1C(=O)O [Example 20, 9-N-(4-Acetoxybutyl)aminodeoxyclavulanic acid]
MIC (E.coli JT39): 31.2 µg/mL (≈ 99.9 µM) | MIC (S.aureus Russell): 16 µg/mL (≈ 51.2 µM)

NC(=O)CCNC/C=C1\O[C@@H]2CC(=O)N2[C@H]1C(=O)O [Example 28, 9-N-(2-carbamoylethyl)aminodeoxyclavulanic acid]
MIC (E.coli JT39): 16 µg/mL (≈ 59.4 µM) | MIC (S.aureus Russell): 16 µg/mL (≈ 59.4 µM)

CCOC(CCCNC/C=C1\O[C@@H]2CC(=O)N2[C@H]1C(=O)O)OCC [Example 19, 9-N-(4,4-Diethoxybutyl)amino deoxyclavulanic acid]
MIC (E.coli JT39): 31.2 µg/mL (≈ 91.1 µM) | MIC (S.aureus Russell): 16 µg/mL (≈ 46.7 µM)

O=C(CCNC/C=C1\O[C@@H]2CC(=O)N2[C@H]1C(=O)O)NCc1ccccc1 [Example 25, 9-N-(3-N-Benzylcarbamoyleth-1-yl)aminodeoxyclavulanic acid]
MIC (E.coli JT39): 8 µg/mL (≈ 22.3 µM) | MIC (S.aureus Russell): 2 µg/mL (≈ 5.57 µM)

CN(C)C(=O)NCCNC/C=C1\O[C@@H]2CC(=O)N2[C@H]1C(=O)O [Example 22 (2nd compound), 9-N-(N'N'-dimethylureido)ethylaminodeoxyclavulanic acid]
MIC (E.coli JT39): 62.5 µg/mL (≈ 200 µM) | MIC (S.aureus Russell): 4 µg/mL (≈ 12.8 µM)

CC(C)(CCCNC/C=C1\O[C@@H]2CC(=O)N2[C@H]1C(=O)O)[N+](=O)[O-] [Example 21, 9-N-[4-Methyl-4-nitropentyl]aminodeoxyclavulanic acid]
MIC (E.coli JT39): 8 µg/mL (≈ 24.4 µM) | MIC (S.aureus Russell): 4 µg/mL (≈ 12.2 µM)

O=C(O)[C@H]1/C(=C/CNCCc2ccccn2)O[C@@H]2CC(=O)N21 [Example 4, 9-N-(2-Pyrid-2'-ylethyl)aminodeoxyclavulanic acid]
MIC (E.coli JT39): 31.2 µg/mL (≈ 103 µM) | MIC (S.aureus Russell): 4 µg/mL (≈ 13.2 µM)

O=C(O)[C@H]1/C(=C/CNCC(O)c2ccccc2)O[C@@H]2CC(=O)N21 (stereo partly shown) [Example 30, 9-N-(2-Hydroxy-2-phenylethyl)aminodeoxyclavulanic acid]
MIC (E.coli JT39): 31.2 µg/mL (≈ 98 µM) | MIC (S.aureus Russell): 2 µg/mL (≈ 6.28 µM)

O=C(O)[C@H]1/C(=C/CNCCS(=O)(=O)c2ccccc2)O[C@@H]2CC(=O)N21 [Example 23, 9-N-[2-(phenylsulphonyl)ethyl]aminodeoxyclavulanic acid]
MIC (E.coli JT39): 31.2 µg/mL (≈ 85.2 µM) | MIC (S.aureus Russell): 16 µg/mL (≈ 43.7 µM)

CS(=O)(=O)NCCCNC/C=C1\O[C@@H]2CC(=O)N2[C@H]1C(=O)O [Example 13, 9-N-(3-Methylsulphonamidopropyl)aminodeoxyclavulanic acid]
MIC (E.coli JT39): 31.2 µg/mL (≈ 93.6 µM) | MIC (S.aureus Russell): 16 µg/mL (≈ 48 µM)

CS(=O)(=O)NCCNC/C=C1\O[C@@H]2CC(=O)N2[C@H]1C(=O)O [Example 12, 9-N-(2-methylsulphonamidoethyl)aminodeoxyclavulanic acid]
MIC (E.coli JT39): 31.2 µg/mL (≈ 97.7 µM) | MIC (S.aureus Russell): 8 µg/mL (≈ 25.1 µM)

O=C(O)[C@H]1/C(=C/CNCCCn2ccnc2)O[C@@H]2CC(=O)N21 [Example 18]
MIC (E.coli JT39): 31.2 µg/mL (≈ 102 µM) | MIC (S.aureus Russell): 8 µg/mL (≈ 26.1 µM)

COC(CNC/C=C1\O[C@@H]2CC(=O)N2[C@H]1C(=O)O)OC [Example 1, 9-N-(2,2-Dimethoxyethyl)amino deoxyclavulanate]
MIC (E.coli JT39): 16 µg/mL (≈ 55.9 µM) | MIC (S.aureus Russell): 8 µg/mL (≈ 27.9 µM)

O=C(O)[C@H]1/C(=C/CNCCc2c[nH]c3ccccc23)O[C@@H]2CC(=O)N21 [Example 26, 9-N-(2-Indol-3'-ylethyl)aminodeoxyclavulanic acid]
MIC (E.coli JT39): 8 µg/mL (≈ 23.4 µM) | MIC (S.aureus Russell): ≤ 0.5 µg/mL

O=C(O)[C@H]1/C(=C/CNCCNc2ccccc2)O[C@@H]2CC(=O)N21 [Example 29, 9-N-(2-Phenylaminoethyl)aminodeoxyclavulanic acid]
MIC (E.coli JT39): 16 µg/mL (≈ 50.4 µM) | MIC (S.aureus Russell): 4 µg/mL (≈ 12.6 µM)

O=C(O)[C@H]1/C(=C/CNCCc2ccncc2)O[C@@H]2CC(=O)N21 [Example 5, 9-N-(2-Pyrid-4'-ylethyl)amino deoxyclavulanic acid]
MIC (E.coli JT39): 31.2 µg/mL (≈ 103 µM) | MIC (S.aureus Russell): 8 µg/mL (≈ 26.4 µM)
